This passage reports inhibition results from US11078213B2, “Thienopyrimidine compound, preparation method thereof, pharmaceutical composition and application thereof” (HONGYUN BIOTECH CO., LTD., priority 2016, dated 2021).

For experiment [1], the target named is T1, NPM-ALK-BaF3 (Homo sapiens, UniProt Q9UM73).
T1 construct: NPM (nuclear phosphoprotein / nucleophosmin, NPM1, P06748) fusion partner; expressed in transfected cells; host or cells: BaF3; the other entry of the earlier key: NPM1 (P06748, Nucleophosmin)
T1 sequence (Q9UM73 with tags, fused parts or gaps): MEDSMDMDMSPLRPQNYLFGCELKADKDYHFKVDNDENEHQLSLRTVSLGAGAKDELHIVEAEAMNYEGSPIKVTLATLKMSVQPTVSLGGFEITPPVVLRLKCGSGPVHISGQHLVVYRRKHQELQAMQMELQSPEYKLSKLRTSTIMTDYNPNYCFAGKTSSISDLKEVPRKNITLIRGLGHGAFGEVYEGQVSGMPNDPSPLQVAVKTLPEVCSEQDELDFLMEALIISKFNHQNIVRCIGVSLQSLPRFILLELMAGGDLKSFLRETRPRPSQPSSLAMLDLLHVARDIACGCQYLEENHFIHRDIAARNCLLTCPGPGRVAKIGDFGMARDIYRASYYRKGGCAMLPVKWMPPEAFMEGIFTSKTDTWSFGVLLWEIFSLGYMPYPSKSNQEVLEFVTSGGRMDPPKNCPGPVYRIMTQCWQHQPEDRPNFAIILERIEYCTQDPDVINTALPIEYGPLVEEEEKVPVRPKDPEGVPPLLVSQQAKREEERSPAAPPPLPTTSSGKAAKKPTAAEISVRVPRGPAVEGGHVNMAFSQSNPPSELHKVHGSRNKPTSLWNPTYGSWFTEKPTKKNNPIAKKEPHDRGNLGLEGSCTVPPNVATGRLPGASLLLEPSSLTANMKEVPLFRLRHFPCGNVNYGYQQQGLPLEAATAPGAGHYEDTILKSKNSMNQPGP
In words: Growth inhibition of BaF3 cells stably transfected with kinase NPM-ALK (MTS). The class given is cell-based. The settings on record: compound concentration 3.3 μM, read-out: cell growth inhibition rate, NPM-ALK. The method, then:
(§1) The specific test method is given as follows:
(§2) 2) Reagent: MTS reaction solution (containing 2 mg/mL of MTS [3-(4,5-dimethylthiazol-2-yl)-5-(3-carboxymethoxyphenyl)-2-(4-sulfophenyl)-2H-tetra zolium, inner Salt]; 100 µg/mL PES ([…])).

The target of experiment [2] is T2, EML4-ALK-BaF3 (Homo sapiens, UniProt Q9UM73).
T2 construct: EML4 (echinoderm microtubule associated protein like 4, Q9HC35) fusion partner; expressed in transfected cells; host or cells: BaF3; the other entry of the earlier key: EML4 (Q9HC35, Echinoderm microtubule-associated protein-like 4)
T2 sequence (Q9UM73 1058-1620 limits assumed): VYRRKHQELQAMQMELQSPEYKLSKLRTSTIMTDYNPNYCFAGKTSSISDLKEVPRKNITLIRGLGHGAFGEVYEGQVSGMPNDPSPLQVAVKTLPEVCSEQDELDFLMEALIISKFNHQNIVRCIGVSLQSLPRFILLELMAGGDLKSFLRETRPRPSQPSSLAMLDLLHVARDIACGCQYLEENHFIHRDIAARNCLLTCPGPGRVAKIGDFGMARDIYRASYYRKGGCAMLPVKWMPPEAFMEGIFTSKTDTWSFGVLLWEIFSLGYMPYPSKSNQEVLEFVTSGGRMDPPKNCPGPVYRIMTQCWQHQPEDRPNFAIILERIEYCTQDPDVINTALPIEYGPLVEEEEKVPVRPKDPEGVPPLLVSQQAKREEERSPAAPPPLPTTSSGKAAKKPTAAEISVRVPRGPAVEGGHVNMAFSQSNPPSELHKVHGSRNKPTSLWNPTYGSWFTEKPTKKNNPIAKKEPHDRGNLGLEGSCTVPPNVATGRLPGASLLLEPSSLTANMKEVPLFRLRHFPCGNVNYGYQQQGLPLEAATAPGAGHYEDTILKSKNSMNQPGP
As to the kind of experiment: Growth inhibition of BaF3 cells stably transfected with kinase EML4-ALK (MTS). The class given is cell-based. The settings on record: compound concentration 3.3 μM, read-out: cell growth inhibition rate, EML4-ALK. The method, then:
as §1, §2

In general, inhibition refers to the change of the read-out against control, counted positive when it falls.

Molecules are shown by their SMILES.

Turning to `COc1cc(N2CCC(N3CCN(C)CC3)CC2)ccc1Nc1nc(Nc2ccccc2NS(C)(=O)=O)c2sccc2n1` [IH-2], the inhibition at 3.3 µM in experiment [1] stood at 85.1%. As to `COc1cc(N2CCC(N3CCCC3)CC2)ccc1Nc1nc(Nc2ccccc2P(=O)(C(C)C)C(C)C)c2sccc2n1` [IR-2], in experiment [2], the inhibition at 3.3 µM stood at 96.3%. Turning to `COc1cc2c(cc1Nc1nc(Nc3ccccc3NS(C)(=O)=O)c3sccc3n1)N(C(=O)CN(C)C)CC2` [IH-1], in experiment [1], the inhibition at 3.3 µM was 12.7%.

Take `COc1cc(N2CCC(N3CCN(C)CC3)CC2)ccc1Nc1nc(OCc2ccccc2S(=O)(=O)C(C)C)c2sccc2n1` [IT-3]: the inhibition at 3.3 µM in experiment [2] was 87.8%.

Take `COC(=O)c1cccc(Nc2nc(Nc3cc4c(cc3OC)CCN4C(=O)CN(C)C)nc3ccsc23)c1` [ID-1]: the inhibition at 3.3 µM in experiment [1] came to 73.4%. As for `CC(C)S(=O)(=O)c1ccccc1Nc1nc(Nc2ccc(N3CCN(C(=O)OC(C)(C)C)CC3)cc2)nc2ccsc12` [IB-25], the inhibition at 3.3 µM in experiment [1] amounted to 61.4%. As to `COc1cc(N2CCC(N(C)C)CC2)ccc1Nc1nc(Nc2ccccc2S(=O)(=O)C(C)C)c2sccc2n1` [IB-31], the inhibition at 3.3 µM in experiment [2] was determined as 98.1%. On to `CS(=O)(=O)Nc1ccccc1Nc1nc(Nc2ccc(S(N)(=O)=O)cc2)nc2ccsc12` [IH-7], for which, in experiment [1], the inhibition at 3.3 µM came to 15.1%. Same read-out and setting: the figure for `CC(C)S(=O)(=O)c1ccccc1Nc1nc(Nc2ccc(C(=O)N3CCC(N4CCN(C)CC4)CC3)cc2)nc2ccsc12` [IB-29] is 97.5%; for `COc1cc(N2CCN(C)CC2)ccc1Nc1nc(Nc2ccccc2S(=O)(=O)C(C)C)c2sccc2n1` [IB-8] it is 83.7%; for `CC(C)S(=O)(=O)c1ccccc1Nc1nc(Nc2ccc(C(=O)N3CCN(C)CC3)cc2)nc2ccsc12` [IB-26] it is 97.3%. Still for that read-out and setting: the figure for `CC(C)S(=O)(=O)c1ccccc1Nc1nc(Nc2ccc(N3CCC(N4CCN(C)CC4)CC3)cc2)nc2ccsc12` [IB-6] is 93.2%; for `CC(C)S(=O)(=O)c1ccccc1Nc1nc(Nc2ccc(OCc3ccccn3)cc2)nc2ccsc12` [IB-20] it is 66%.

Take `COc1cc2c(cc1Nc1nc(Nc3cn(C)nc3S(=O)(=O)C(C)C)c3sccc3n1)N(C(=O)CN(C)C)CC2` [IC-1]: in experiment [1], the inhibition at 3.3 µM amounted to 82.4%. In the case of `COc1cc(N2CCN(C)CC2)ccc1Nc1nc(Nc2ccccc2C(=O)NC(C)C)c2sccc2n1` [IP-2], the inhibition at 3.3 µM in experiment [2] was found to be 97.3%. Regarding `COc1cc(C2CCN(C)CC2)c(C)cc1Nc1nc(Nc2ccccc2S(C)(=O)=O)c2sccc2n1` [IA-5], in experiment [1], the inhibition at 3.3 µM stood at 90.9%. For `COc1cc(N2CCN(C)CC2)ccc1Nc1nc(Nc2ccccc2P(=O)(C(C)C)C(C)C)c2sccc2n1` [IR-3], in experiment [2], the inhibition at 3.3 µM came to 99.2%. Same read-out and setting: the result for `CCP(=O)(CC)c1ccccc1Nc1nc(Nc2ccc(N3CCN(C)CC3)cc2OC)nc2ccsc12` [IS-4] reads 103%; that for `CC(C)P(=O)(c1ccccc1Nc1nc(Nc2ccc(N3CCN(C)CC3)cc2)nc2ccsc12)C(C)C` [IR-6], 98.3%. On to `CS(=O)(=O)Nc1ccccc1Nc1nc(Nc2ccc(N3CCC(O)CC3)cc2)nc2ccsc12` [IH-4], for which, in experiment [1], the inhibition at 3.3 µM turned out to be 26.7%. As for `COc1cc(N2CCC(N(C)C)CC2)ccc1Nc1nc(Nc2ccccc2C(=O)NC(C)C)c2sccc2n1` [IP-3], the inhibition at 3.3 µM in experiment [2] came out at 99.1%. `COc1cc2c(cc1Nc1nc(Nc3ccccc3P(=O)(C(C)C)C(C)C)c3sccc3n1)N(C(=O)CN(C)C)CC2` [IR-1]: the inhibition at 3.3 µM in experiment [2] is 97.5%. Regarding `CN1CCN(c2ccc(Nc3nc(NCc4ccccc4S(C)(=O)=O)c4sccc4n3)cc2)CC1` [IL-3], the inhibition at 3.3 µM in experiment [1] stood at 56.8%. Turning to `CC(C)Oc1cc(N2CCC(O)CC2)ccc1Nc1nc(Nc2ccccc2S(=O)(=O)C(C)C)c2sccc2n1` [IB-18], the inhibition at 3.3 µM in experiment [1] turned out to be 66.1%.

As for `CNC(=O)c1ccccc1Nc1nc(Nc2ccc(N3CCC(N4CCN(C)CC4)CC3)cc2OC)nc2ccsc12` [II-1], the inhibition at 3.3 µM in experiment [1] amounted to 46.3%. Same read-out and setting: the figure for `Cc1cc(Nc2nc(Nc3ccccc3S(=O)(=O)C(C)C)c3sccc3n2)c(OC(C)C)cc1C1CCN(C)CC1` [IB-9] is 88.5%. As to `COc1cc(N2CCC(N3CCN(C)CC3)CC2)ccc1Nc1nc(Nc2ccccc2S(=O)(=O)C(C)(C)C)c2sccc2n1` [IO-2], the inhibition at 3.3 µM in experiment [2] was determined as 96%. For `CC(C)S(=O)(=O)c1nn(C)cc1Nc1nc(Nc2ccc(N3CCN(C)CC3)cc2)nc2ccsc12` [IC-3], in experiment [1], the inhibition at 3.3 µM came out at 46.5%.

Take `CC(C)S(=O)(=O)c1ccccc1Nc1nc(Nc2ccc(N3CCOCC3)nc2)nc2ccsc12` [IB-16]: in experiment [1], the inhibition at 3.3 µM turned out to be 77.5%. Turning to `COc1cc2c(cc1Nc1nc(Nc3cccc(NS(C)(=O)=O)c3)c3sccc3n1)N(C(=O)CN(C)C)CC2` [IG-1], in experiment [1], the inhibition at 3.3 µM stood at 22.2%. On the same count and under the same terms, the figure for `COc1cc(C2CCN(C)CC2)c(C)cc1Nc1nc(Nc2ccccc2S(=O)(=O)C(C)C)c2sccc2n1` [IB-5] is 88.9%; for `CNC(=O)c1ccccc1Nc1nc(Nc2ccc(N3CCC(O)CC3)cc2)nc2ccsc12` [II-5] it is 31.6%; for `COc1cc(N2CCC(N3CCN(C)CC3)CC2)ccc1Nc1nc(Nc2cn(C)nc2S(=O)(=O)C(C)C)c2sccc2n1` [IC-2] it is 55%. As for `COc1cc(N2CCC(O)CC2)ccc1Nc1nc(Nc2ccccc2S(=O)(=O)C(C)C)c2sccc2n1` [IB-19], in experiment [1], the inhibition at 3.3 µM is 84.9%. On the same count and under the same terms, the result for `COC(=O)c1cccc(Nc2nc(Nc3ccc(N4CCN(C)CC4)cc3OC)nc3ccsc23)c1` [ID-2] reads 44.7%.

In the case of `CC(C)S(=O)(=O)c1ccccc1Nc1nc(Nc2ccc(N3CCC(O)CC3)cc2)nc2ccsc12` [IB-4], the inhibition at 3.3 µM in experiment [1] was 96%.

For the compound `COc1cc(N2CCC(N3CCN(C)CC3)CC2)ccc1Nc1nc(Nc2cccc(NS(C)(=O)=O)c2)c2sccc2n1` [IG-2], in experiment [1], the inhibition at 3.3 µM was found to be 17.4%. For the compound `COc1cc(N2CCC(N3CCN(C)CC3)CC2)ccc1Nc1nc(NCc2ccccc2S(C)(=O)=O)c2sccc2n1` [IL-2], in experiment [1], the inhibition at 3.3 µM was determined as 54.8%.

For `CCOc1cc(C(=O)N2CCC(N3CCN(C)CC3)CC2)ccc1Nc1nc(Nc2ccccc2S(=O)(=O)C(C)C)c2sccc2n1` [IB-13], the inhibition at 3.3 µM in experiment [1] is 90.3%. On the same count and under the same terms, the result for `CC(C)S(=O)(=O)c1nn(C)cc1Nc1nc(Nc2ccc(N3CCC(O)CC3)cc2)nc2ccsc12` [IC-4] reads 53.2%; that for `CCOc1cc(N2CCN(C)CC2)ccc1Nc1nc(Nc2ccccc2S(=O)(=O)C(C)C)c2sccc2n1` [IB-28], 96.5%. The same measure, in the same setting: the result for `CS(=O)(=O)c1ccccc1CNc1nc(Nc2ccc(N3CCC(O)CC3)cc2)nc2ccsc12` [IL-4] reads 45.8%. On the same count and under the same terms, the figure for `CC(C)S(=O)(=O)c1ccccc1CNc1nc(Nc2ccc(N3CCC(O)CC3)cc2)nc2ccsc12` [IM-4] is 53.1%; for `COc1cc(N2CCC(N3CCCC3)CC2)ccc1Nc1nc(Nc2ccccc2S(=O)(=O)C(C)C)c2sccc2n1` [IB-7] it is 92.8%; for `CC(C)S(=O)(=O)c1ccccc1Nc1nc(Nc2ccc(N3CCC(O)CC3)cn2)nc2ccsc12` [IB-12] it is 55.9%. Take `CS(=O)(=O)Nc1cccc(Nc2nc(Nc3ccc(S(N)(=O)=O)cc3)nc3ccsc23)c1` [IG-6]: the inhibition at 3.3 µM in experiment [1] turned out to be 3.07%.

As for `COc1cc2c(cc1Nc1nc(NCc3ccccc3S(=O)(=O)C(C)C)c3sccc3n1)N(C(=O)CN(C)C)CC2` [IM-1], the inhibition at 3.3 µM in experiment [1] is 94.2%. The same measure, in the same setting: the figure for `CC(C)S(=O)(=O)c1ccccc1Nc1nc(Nc2ccc(S(=O)(=O)N3CCC(O)CC3)cc2)nc2ccsc12` [IB-11] is 60.9%; for `CC(C)S(=O)(=O)c1ccccc1Nc1nc(Nc2ccc(N3CCOCC3)cc2)nc2ccsc12` [IB-15] it is 83.3%.

`COc1cc(N2CCN(C)CC2)ccc1Nc1nc(Nc2ccccc2NS(C)(=O)=O)c2sccc2n1` [IH-3]: in experiment [1], the inhibition at 3.3 µM amounted to 79.2%. Still for that read-out and setting: the result for `CCOc1cc(N2CCN(C)CC2)ccc1Nc1nc(Nc2ccccc2C(=O)NC)c2sccc2n1` [II-4] reads 46.6%. `COc1cc(C(=O)N2CCC(N3CCN(C)CC3)CC2)ccc1Nc1nc(Nc2ccccc2S(=O)(=O)C(C)C)c2sccc2n1` [IB-22]: the inhibition at 3.3 µM in experiment [1] was 87.3%. Still for that read-out and setting: the result for `CCOc1cc(N2CCC(O)CC2)ccc1Nc1nc(Nc2ccccc2S(=O)(=O)C(C)C)c2sccc2n1` [IB-17] reads 86%; that for `CC(C)S(=O)(=O)c1ccccc1Nc1nc(Nc2ccc(N3CCC(O)CC3)nc2)nc2ccsc12` [IB-23], 96.7%. For the compound `COc1cc2c(cc1Nc1nc(NCc3ccccc3S(C)(=O)=O)c3sccc3n1)N(C(=O)CN(C)C)CC2` [IL-1], the inhibition at 3.3 µM in experiment [1] is 73.7%. Still for that read-out and setting: the figure for `CC(C)S(=O)(=O)c1ccccc1Nc1nc(Nc2ccc(S(=O)(=O)N3CCN(C)CC3)cc2)nc2ccsc12` [IB-21] is 72.1%; for `CC(C)S(=O)(=O)c1ccccc1Nc1nc(Nc2ccc(N3CCN(C)CC3)cc2)nc2ccsc12` [IB-3] it is 94.2%.

`COc1cc(N2CCC(N3CCN(C)CC3)CC2)ccc1Nc1nc(NCc2ccccc2S(=O)(=O)C(C)C)c2sccc2n1` [IM-2]: in experiment [1], the inhibition at 3.3 µM worked out at 20.6%. Same read-out and setting: the figure for `CC(C)S(=O)(=O)c1ccccc1CNc1nc(Nc2ccc(N3CCN(C)CC3)cc2)nc2ccsc12` [IM-3] is 52.5%; for `CNC(=O)c1ccccc1Nc1nc(Nc2ccc(N3CCN(C)CC3)cc2OC)nc2ccsc12` [II-3] it is 84.1%; for `CNC(=O)c1ccccc1Nc1nc(Nc2ccc(N3CCN(C)CC3)cc2)nc2ccsc12` [II-2] it is 28.1%. The same measure, in the same setting: the result for `CC(C)S(=O)(=O)c1ccccc1Nc1nc(Nc2ccc(N3CCN(C)CC3)cn2)nc2ccsc12` [IB-24] reads 97.4%. The same measure, in the same setting: the result for `CS(=O)(=O)Nc1cccc(Nc2nc(Nc3ccc(N4CCC(O)CC4)cc3)nc3ccsc23)c1` [IG-3] reads 21.6%.
